The values that follow come from PMC6385203, “Mutations in the palm domain disrupt modulation of acid-sensing ion channel 1a currents by neuropeptides” (Scientific Reports, 2019).

Peptide text beside a SMILES is read from it.

This experiment concerns the target T1, WT ASIC1a (Homo sapiens, UniProt P78348).
T1 construct: expressed in transfected cells; host or cells: Xenopus laevis oocytes injected with cRNA
T1 sequence (P78348 1-528): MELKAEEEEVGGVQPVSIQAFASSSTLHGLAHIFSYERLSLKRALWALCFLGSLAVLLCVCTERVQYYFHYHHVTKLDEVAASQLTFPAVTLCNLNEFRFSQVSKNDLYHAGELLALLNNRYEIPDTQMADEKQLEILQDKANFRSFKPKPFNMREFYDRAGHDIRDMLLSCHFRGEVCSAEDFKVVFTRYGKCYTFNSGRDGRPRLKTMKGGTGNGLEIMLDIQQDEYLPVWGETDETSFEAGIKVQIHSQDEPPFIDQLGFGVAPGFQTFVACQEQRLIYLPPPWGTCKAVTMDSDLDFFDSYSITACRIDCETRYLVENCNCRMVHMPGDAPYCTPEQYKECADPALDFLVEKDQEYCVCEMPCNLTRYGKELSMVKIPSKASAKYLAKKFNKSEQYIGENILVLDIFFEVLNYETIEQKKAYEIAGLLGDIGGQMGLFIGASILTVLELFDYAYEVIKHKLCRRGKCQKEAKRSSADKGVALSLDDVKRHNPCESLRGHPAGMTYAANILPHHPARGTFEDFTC
Put plainly: Isust/Ipeak, TEVC in Xenopus oocytes, WT. The experiment is classed as cell-based. The settings on record: FRRFa in pH7.4 conditioning and pH5 solution, mean ± SEM, n = 7–12, read-out: EC50 for induction of sustained current (Isust/Ipeak). As for the experimental part: ASIC1a function was measured by two-electrode voltage-clamp after recombinant expression in Xenopus oocytes. The channels were activated by a pH5 stimulation solution from a conditioning solution of pH7.4. […] We measured the rate of FRRFa unbinding, as the disappearance of the sustained current after a 50-s incubation with 50 μM FRRFa, as 0.025 ± 0.005 s^−1 (n = 8, Fig. 2b). […] To determine the kinetics of FRRFa association on ASIC1a, we pre-applied the peptide at a concentration of 50 μM for different time periods in the conditioning solution and measured the sustained current fraction.
Human ASIC1a[43] had been subcloned into a vector for transcription that contained 5′- and 3′-untranslated regions of Xenopus β-globin mRNA[44]. Point mutations were introduced using QuikChange (Agilent, Basel, Switzerland). Mutations were verified by sequencing (Synergene Biotech, Zurich, Switzerland). Expression in Xenopus laevis oocytes was carried out as described previously. […]
Electrophysiological measurements were performed 1–2 days after cRNA injection. Ion currents were recorded using two-electrode voltage-clamp at a holding potential of −60 mV with a Dagan TEV-200 amplifier (Minneapolis, MN). […] The amplitude of the sustained current was measured in the last two seconds of the pH5 perfusion. […]

In the case of `N=C(N)NCCC[C@H](NC(=O)[C@H](CCCNC(=N)N)NC(=O)[C@@H](N)Cc1ccccc1)C(=O)N[C@@H](Cc1ccccc1)C(N)=O` [FRRFa, Phe-Arg-Arg-Phe-amide] (H-FRRF-NH2), the EC50 turned out to be 37 ± 15 µM.
